These results are taken from ChEMBL document CHEMBL1141732, “Croton ruizianus: platelet proaggregating activity of two new pregnane glycosides” (J Nat Prod, 1998).

Series [1] can be described thus: Cytotoxicity against human washed-platelet assessed as LDH release after 5 mins by sonication method. Type of series: cell-based.
The test system of series [2] is Platelet. The experiment in a line: Induction of human washed-platelet aggregation at 20 ug/test tube after 4 mins by light transmission aggregometer. Type of series: functional.
Series [3] deals with Platelet. As to the kind of experiment: Induction of human washed-platelet aggregation at 232 ug/test tube after 4 mins by light transmission aggregometer. Type of series: functional.
The test system of series [4] is Platelet. The experiment in a line: Induction of human washed-platelet aggregation at 20 ug/test tube after 1 min by light transmission aggregometer. Type of series: functional.
For series [5], the system named is Platelet. As to the kind of experiment: Induction of human washed-platelet aggregation at 232 ug/test tube after 1 min by light transmission aggregometer. In kind it is functional.
The subject of series [6] is Platelet. As to the kind of experiment: Induction of human washed-platelet aggregation at 273 ug/test tube after 4 mins by light transmission aggregometer. Type of series: functional.
In series [7] the test system is Platelet. As to the kind of experiment: Induction of human washed-platelet aggregation at 273 ug/test tube after 1 min by light transmission aggregometer. Type of series: functional.
In series [8] the test system is Platelet. As to the kind of experiment: Induction of human washed-platelet aggregation at 82 ug/test tube after 1 min by light transmission aggregometer. In kind it is functional.
Series [9] has as its system Platelet. As to the kind of experiment: Induction of human washed-platelet aggregation at 82 ug/test tube after 4 mins by light transmission aggregometer. In kind it is functional.
In series [10] the test system is Platelet. As to the kind of experiment: Induction of human washed-platelet aggregation at 85 ug/test tube after 4 mins by light transmission aggregometer. Type of series: functional.
For series [11], the system named is Platelet. The experiment in a line: Induction of human washed-platelet aggregation at 85 ug/test tube after 1 min by light transmission aggregometer. Type of series: functional.

Each structure is given as a SMILES string.

With `CO[C@@H]1[C@@H](O)[C@H](O[C@H]2CC[C@@]3(C)[C@@H](CC[C@@H]4[C@@H]3CC[C@]3(C)[C@@H](C(C)=O)[C@H](O)[C@@H](O)[C@]43O)C2)O[C@H](C)[C@H]1O[C@@H]1C[C@@H](O)[C@@H](O[C@@H]2C[C@H](OC)[C@@H](O[C@H]3C[C@@H](OC)[C@H](O)[C@@H](C)O3)[C@H](C)O2)[C@H](C)O1`, the Activity result in series [1] was “<= 3.8%”; in the series on Platelet [2] it was 12.5%; in the series with Platelet [3], 54.5%; in the series on Platelet [4] it was 12.5%; in the series with Platelet [5], 18.3%.

Turning to `CO[C@@H]1[C@@H](O)[C@H](O[C@H]2CC[C@@]3(C)[C@@H](CC[C@@H]4[C@@H]3CC[C@]3(C)[C@@H](C(C)=O)[C@H](O)[C@@H](O)[C@]43O)C2)O[C@H](C)[C@H]1O[C@@H]1C[C@@H](O)[C@@H](O[C@@H]2C[C@H](OC)[C@@H](O[C@H]3C[C@@H](OC)[C@H](O[C@@H]4O[C@H](CO)[C@@H](O)[C@H](O)[C@H]4O)[C@@H](C)O3)[C@H](C)O2)[C@H](C)O1`, the Activity entry in series [1] is listed as “<= 3.8%”; with Platelet [6], 42.3%; with Platelet [2] it was 9.4%; in the series on Platelet [4], 5.3%; with Platelet [7], 14.1%.

As for `COC1=C[C@]23CCN(C)[C@H](Cc4cc(OC)c(O)cc42)C3=CC1=O` [FLAVINANTINE], the Activity was 6.3% in the series on Platelet [8]; “<= 3.8%” in [1]; 3.5% in the series with Platelet [2]; 2.1% with Platelet [4]; 17.5% in the series with Platelet [9].

With `COC1=C[C@]23CCN(C)[C@H](Cc4cc(OC)c(OC)cc42)C3=CC1=O` [O-METHYLFLAVINANTINE], the Activity result in [1] was “<= 3.8%”; in the series on Platelet [2], 0%; in the series on Platelet [4], 0%; with Platelet [10], 8.8%; in the series on Platelet [11] it was 3.1%.
